{
  "source": "ChEMBL document CHEMBL1135474",
  "about": "“Synthesis and antitumor activity of 1,5,6-substituted E-3-(2-chloro-3-indolylmethylene)-1,3-dihydroindol-2-ones” (J Med Chem, 2002)",
  "assay_type_in_all_cases": "functional",
  "key": {"[1]": {"test_system": "Panel melanoma (Carcinoma cell lines)", "experiment": "Cytotoxic effect on human melanoma tumor cell lines"}, "[2]": {"test_system": "Panel leukemia (Carcinoma cell lines)", "experiment": "Cytotoxic effect on human leukemia tumor cell lines"}, "[3]": {"test_system": "NSCLC", "experiment": "Inhibition of proliferation in NCI human non-small cell lung tumor cell lines"}, "[4]": {"test_system": "Panel prostate (Carcinoma cell lines)", "experiment": "Inhibition of proliferation in NCI human prostate tumor cell lines"}, "[5]": {"test_system": "Panel CNS (Carcinoma cell lines)", "experiment": "Cytotoxic effect on human CNS tumor cell lines"}, "[6]": {"test_system": "Panel melanoma (Carcinoma cell lines)", "experiment": "Cytostatic effect on human melanoma tumor cell lines"}, "[7]": {"test_system": "Panel renal (Carcinoma cell lines)", "experiment": "Cytotoxic effect on human renal tumor cell lines"}, "[8]": {"test_system": "Panel ovarian (Carcinoma cell lines)", "experiment": "Inhibition of proliferation in NCI human ovarian tumor cell lines"}, "[9]": {"test_system": "NCI-H460", "experiment": "Cytotoxic effect on human NCI-H460 lung cancer cell line as percentage growth after inoculation at 10e-4 M"}, "[10]": {"test_system": "Panel breast (Carcinoma cell lines)", "experiment": "Cytostatic effect on human breast tumor cell lines"}, "[11]": {"experiment": "Cytotoxic effect on 60 human tumor cell line panel, MG-MID represents mean value"}, "[12]": {"test_system": "Panel breast (Carcinoma cell lines)", "experiment": "Inhibition of proliferation in NCI human breast tumor cell lines"}, "[13]": {"test_system": "Panel colon (Carcinoma cell lines)", "experiment": "Cytostatic effect on human colon tumor cell lines"}, "[14]": {"experiment": "Inhibition of proliferation in NCI 60 human tumor cell line panel, MG-MID represents mean value"}, "[15]": {"experiment": "Cytostatic effect on 60 human tumor cell line panel, MG-MID represents mean value"}, "[16]": {"test_system": "MCF7", "experiment": "Cytotoxic effect on human MCF-7 breast cancer cell line as percentage growth at 10e-4 M"}, "[17]": {"test_system": "Panel prostate (Carcinoma cell lines)", "experiment": "Cytotoxic effect on human prostate tumor cell lines"}, "[18]": {"test_system": "Panel renal (Carcinoma cell lines)", "experiment": "Inhibition of proliferation in NCI human renal tumor cell lines"}, "[19]": {"test_system": "Panel colon (Carcinoma cell lines)", "experiment": "Inhibition of proliferation in NCI human colon tumor cell lines"}, "[20]": {"test_system": "Panel prostate (Carcinoma cell lines)", "experiment": "Cytostatic effect on human prostate tumor cell lines"}, "[21]": {"test_system": "SF-268", "experiment": "Cytotoxic effect on human SF-268 glioma cancer cell line as percentage growth after inoculation at 10e-4 M"}, "[22]": {"test_system": "Panel leukemia (Carcinoma cell lines)", "experiment": "Inhibition of proliferation in NCI human leukemia tumor cell lines"}, "[23]": {"test_system": "Panel colon (Carcinoma cell lines)", "experiment": "Cytotoxic effect on human colon tumor cell lines"}, "[24]": {"test_system": "NSCLC", "experiment": "Cytostatic effect on human non-small cell lung carcinoma tumor cell lines"}, "[25]": {"test_system": "Panel ovarian (Carcinoma cell lines)", "experiment": "Cytostatic effect on human ovarian tumor cell lines"}, "[26]": {"test_system": "Panel breast (Carcinoma cell lines)", "experiment": "Cytotoxic effect on human breast tumor cell lines"}, "[27]": {"test_system": "Panel CNS (Carcinoma cell lines)", "experiment": "Inhibition of proliferation in NCI human CNS tumor cell lines"}, "[28]": {"test_system": "Panel ovarian (Carcinoma cell lines)", "experiment": "Cytotoxic effect on human ovarian tumor cell lines"}, "[29]": {"test_system": "Panel renal (Carcinoma cell lines)", "experiment": "Cytostatic effect on human renal tumor cell lines"}, "[30]": {"test_system": "Panel leukemia (Carcinoma cell lines)", "experiment": "Cytostatic effect on human leukemia tumor cell lines"}, "[31]": {"test_system": "Panel CNS (Carcinoma cell lines)", "experiment": "Cytostatic effect on human CNS tumor cell lines"}, "[32]": {"test_system": "Panel melanoma (Carcinoma cell lines)", "experiment": "Inhibition of proliferation in NCI human melanoma tumor cell lines"}},
  "data": [
    {"smiles": "COc1cc2c(cc1C)NC(=O)/C2=C/c1c(Cl)[nH]c2cc(C)c(OC)cc12", "values": [
      {"measurement": "LC50", "setting": "[1]", "value": -4.3},
      {"measurement": "LC50", "setting": "[2]", "value": -4.2},
      {"measurement": "GI50", "setting": "[3]", "value": 3160, "unit": "nM"},
      {"measurement": "GI50", "setting": "[4]", "value": 1260, "unit": "nM"},
      {"measurement": "LC50", "setting": "[5]", "value": -4.6},
      {"measurement": "TGI", "setting": "[6]", "value": -4.8, "unit": "log10 M"},
      {"measurement": "LC50", "setting": "[7]", "value": -4.3},
      {"measurement": "GI50", "setting": "[8]", "value": 2000, "unit": "nM"},
      {"measurement": "Growth", "setting": "[9]", "value": -63, "unit": "%"},
      {"measurement": "logTGI", "setting": "[10]", "value": -4.7, "unit": "log M"},
      {"measurement": "LC50", "setting": "[11]", "value": -4.3},
      {"measurement": "GI50", "setting": "[12]", "value": 2510, "unit": "nM"},
      {"measurement": "logTGI", "setting": "[13]", "value": -4.7, "unit": "log M"},
      {"measurement": "GI50", "setting": "[14]", "value": 2000, "unit": "nM"},
      {"measurement": "logTGI", "setting": "[15]", "value": -4.8, "unit": "log M"},
      {"measurement": "Growth", "setting": "[16]", "value": -51, "unit": "%"},
      {"measurement": "LC50", "setting": "[17]", "value": -4.4},
      {"measurement": "GI50", "setting": "[18]", "value": 2510, "unit": "nM"},
      {"measurement": "GI50", "setting": "[19]", "value": 3980, "unit": "nM"},
      {"measurement": "logTGI", "setting": "[20]", "value": -4.9, "unit": "log M"},
      {"measurement": "Growth", "setting": "[21]", "value": -67, "unit": "%"},
      {"measurement": "GI50", "setting": "[22]", "value": 501, "unit": "nM"},
      {"measurement": "LC50", "setting": "[23]", "value": -4.2},
      {"measurement": "logTGI", "setting": "[24]", "value": -4.8, "unit": "log M"},
      {"measurement": "TGI", "setting": "[25]", "value": -4.9, "unit": "log10 M"},
      {"measurement": "LC50", "setting": "[26]", "value": -4.1},
      {"measurement": "GI50", "setting": "[27]", "value": 631, "unit": "nM"},
      {"measurement": "LC50", "setting": "[28]", "value": -4.4},
      {"measurement": "logTGI", "setting": "[29]", "value": -4.8, "unit": "log M"},
      {"measurement": "logTGI", "setting": "[30]", "value": -4.8, "unit": "log M"},
      {"measurement": "logTGI", "setting": "[31]", "value": -5.3, "unit": "log M"},
      {"measurement": "GI50", "setting": "[32]", "value": 3160, "unit": "nM"}
    ]}
  ]
}
